# Test results published in US20050227994A1, “Decomposition inhibitor for extracellular matrix of cartilage” (Shionogi & Co., Ltd., priority 2002, published 2005).
# Molecular target: T1, MMP-13 (Homo sapiens, UniProt P45452)
# T1 construct: catalytic domain (^104Tyr˜^267Gly) was amplified with RT-PCR; His-tag; enterokinase digestion-site; made in house
# Assay: Assay for inhibitory activities on MMP-13
# Type: biochemical
# Conditions: catalytic domain, substrate MOCAc-Pro-Leu-Gly-Leu-A2Pr(DNP)-Ala-Arg-NH2; read-out: MMP-13 (IC50μM)
# Procedure: In regard to MMP-13, mRNA was prepared from carcinoma cell SW1353 derived from human cartilage stimulate by IL-1, TNF and catalytic domain (^[…]) was amplified with RT-PCR. This was cloned in Escherichia. coli expression vector […] inserted with His-tag sequence and enterokinase digestion-site, induced and expressed by IPTG (Isopropyl-β-D-thiogalactopyranoside) and expressed in a insoluble fraction. Isolation of MMP-13 from an insoluble fraction was carried out by dissolving in modifier (6M urea) by a usual method and purification with metal chelate chromatography (Ni […] Sepharose). […] The enzymatic activity on MMP was analyzed by the method described in “C. Graham Knight, Frances Willenbrock and Gillian Murphy: A novel coumarin-labelled peptide for sensitive continuous assays of the matrix metalloproteinases: […] The substrate: MOCAc-[…] was purchased from Peptide Institute, Inc., Osaka, Japan.
row,IC50 [µM],Structure (SMILES)
1,> 10,Cc1ccc(C#Cc2ccc(S(=O)(=O)Nc3cc(Cl)ccc3C(=O)O)s2)cc1 [Compound O-9]
2,0.032,CC(C)[C@H](NS(=O)(=O)c1ccc(-c2ccc(N3CCCC3)cc2)s1)C(=O)O [Compound F-18]
3,0.0082,CS(=O)(=O)OCCc1ccc(-n2nnc(-c3ccc(S(=O)(=O)N[C@H](Cc4ccccc4)C(=O)O)cc3)n2)cc1 [Compound I-4]
4,0.0141,CC(C)C(NS(=O)(=O)c1ccc(-c2ccc(OC(F)(F)F)cc2)cc1)C(=O)O (stereo not shown) [Compound E-20]
5,0.764,O=C(O)[C@@H](Cc1ccccc1)NS(=O)(=O)c1ccc(-c2nc(-c3ccc(Cl)c(Cl)c3)no2)cc1 [Compound D-6]
6,0.106,CSCC[C@H](NS(=O)(=O)c1ccc(-c2ccc(C(C)=O)cc2)s1)C(=O)O [Compound F-25]
7,0.0114,CCCCc1ccc(-n2nnc(-c3ccc(S(=O)(=O)NC4(C(=O)O)CCCCC4)cc3)n2)cc1 [Compound O-4]
8,0.0111,O=C(O)[C@H](NS(=O)(=O)c1ccc(-c2ncc(-c3ccc(Br)cc3)s2)cc1)c1ccccc1 [Compound A-7]
9,0.0122,CCOc1ccc(-c2ccc(S(=O)(=O)NC(C(=O)O)C(C)C)cc2)cc1 (stereo not shown) [Compound E-19]
10,0.031,Cc1ccc(-c2ccc(-c3ccc(S(=O)(=O)N[C@@H](C(=O)O)C(C)C)s3)s2)cc1 [Compound L-1]
11,0.00033,CSc1ccc(-c2cnc(-c3ccc(S(=O)(=O)N[C@@H](C(=O)O)C(C)C)cc3)s2)cc1 [Compound A-25]
12,0.007,CSCC[C@@H](NS(=O)(=O)c1ccc(-c2ccc(SC)cc2)s1)C(=O)O [Compound F-3]
13,0.0026,CSc1ccc(-c2ccc(S(=O)(=O)NC(Cc3ccccc3)C(=O)O)cc2)cc1 (stereo not shown) [Compound E-6]
14,0.095,Cc1ccc(-c2ccc(-c3ccc(S(=O)(=O)N[C@H](C)C(=O)O)cc3)s2)cc1 [Compound K-3]
15,> 10,O=C(O)[C@H]1[C@@H]2CC[C@@H](C2)[C@@H]1NS(=O)(=O)c1ccc(-c2ccon2)s1 [Compound O-1]
16,3.14,O=C(O)CCCNS(=O)(=O)c1ccc(-c2ccc(N3CCCC3)cc2)s1 [Compound O-6]
17,0.018,CSCC[C@@H](NS(=O)(=O)c1ccc(-c2noc(-c3ccc(C(C)C)cc3)n2)cc1)C(=O)O [Compound C-6]
18,0.21,O=C(O)C(Cc1ccccc1)NS(=O)(=O)c1ccc(-c2ccc(F)cc2)cc1 (stereo not shown) [Compound E-26]
19,0.07,O=C(O)[C@@H](Cc1ccccc1)NS(=O)(=O)c1ccc(-c2ccc3ccccc3c2)s1 [Compound N-4]
20,0.024,CC(C)[C@@H](NS(=O)(=O)c1ccc(-c2ccc(-c3ccccc3)cc2)cc1)C(=O)O [Compound E-24]
21,> 10,Cc1ccc(-c2ccc(-c3ccc(S(=O)(=O)NCCCC(=O)O)cc3)s2)cc1 [Compound O-5]
22,0.0139,CC(C)[C@@H](NS(=O)(=O)c1ccc(-c2ccc(-c3ccc4ccccc4c3)cc2)cc1)C(=O)O [Compound E-22]
23,0.019,C[C@H](NS(=O)(=O)c1ccc(-c2ncc(-c3ccc4ccccc4c3)s2)cc1)C(=O)O [Compound A-13]

row,IC50 [µM],Structure (SMILES)
1,0.167,O=C(O)[C@@H](Cc1ccccc1)NS(=O)(=O)c1ccc(-c2nc(-c3ccc(C(F)(F)F)cc3)no2)cc1 [Compound D-4]
2,0.34,O=C(O)[C@H]1[C@@H]2CC[C@@H](C2)[C@@H]1NS(=O)(=O)c1ccc(-c2ccc(N3CCCC3)cc2)s1 [Compound O-2]
3,> 10,COc1ccc2cc(-c3nc(-c4ccc(S(=O)(=O)N[C@H](C)C(=O)O)cc4)cs3)ccc2c1 [Compound M-2]
4,1.37,CC(C)C[C@@H](NS(=O)(=O)c1ccc(C#Cc2ccc3ccccc3c2)s1)C(=O)O [Compound H-10]
5,0.0195,CCSc1ccc(-c2ccc(S(=O)(=O)NC(C(=O)O)C(C)C)cc2)cc1 (stereo not shown) [Compound E-15]
6,0.0366,O=C(O)[C@H](Cc1ccccc1)NS(=O)(=O)c1ccc(C#Cc2ccc3c(c2)OCO3)cc1 [Compound G-9]
7,0.00047,CN(C)c1ccc(-c2ccc(S(=O)(=O)N[C@H](Cc3c[nH]c4ccccc34)C(=O)O)s2)cc1 [Compound F-11]
8,0.001,CSc1ccc(-c2cnc(-c3ccc(S(=O)(=O)N[C@@H](C)C(=O)O)cc3)s2)cc1 [Compound A-27]
9,0.0183,CCOc1ccc(-c2ccc(S(=O)(=O)NC(CC(C)C)C(=O)O)s2)cc1 (stereo not shown) [Compound F-5]
10,0.0067,CCSc1ccc(-c2ccc(S(=O)(=O)NC(C(=O)O)C(C)CC)cc2)cc1 (stereo not shown) [Compound E-17]
11,0.0113,Cc1ccc(C#Cc2ccc(S(=O)(=O)N[C@H](Cc3c[nH]c4c(O)cccc34)C(=O)O)s2)cc1 [Compound H-6]
12,0.0036,COc1ccc(-c2ccc(S(=O)(=O)N[C@H](Cc3c[nH]c4ccccc34)C(=O)O)s2)cc1 [Compound F-9]
13,> 10,O=C(O)[C@@H](Cc1ccccc1)NS(=O)(=O)c1ccc(C#Cc2ccc3ccccc3c2)s1 [Compound H-2]
14,0.083,CC(C)C(NS(=O)(=O)c1ccc(-c2ccc(Cl)cc2)cc1)C(=O)O (stereo not shown) [Compound E-3]
15,> 10,O=C(O)[C@H](Cc1ccccc1)NS(=O)(=O)c1ccc(C#Cc2ccc3ccccc3c2)s1 [Compound H-9]
16,0.046,CC(=O)Oc1ccc(C#Cc2ccc(S(=O)(=O)N[C@H](Cc3c[nH]c4ccccc34)C(=O)O)cc2)cc1 [Compound G-1]
17,0.0604,Cc1ccc(C#Cc2ccc(S(=O)(=O)N[C@H](Cc3ccccc3)C(=O)O)s2)cc1F [Compound H-13]
18,1.01,O=C(O)[C@@H](Cc1ccccc1)NS(=O)(=O)c1ccc(-c2nc(-c3ccc4ccccc4c3)no2)cc1 [Compound D-5]
19,0.0202,CSc1ccc(-c2ccc(S(=O)(=O)NC(C(=O)O)C(C)C)cc2)s1 (stereo not shown) [Compound K-1]
20,0.0057,CC(C)c1ccc(-c2nc(-c3ccc(S(=O)(=O)N[C@@H](C(=O)O)C(C)C)cc3)no2)cc1 [Compound C-4]
21,0.0023,COc1ccc(-c2cnc(-c3ccc(S(=O)(=O)N[C@H](CCSC)C(=O)O)cc3)s2)cc1 [Compound A-3]
22,0.0135,CSCC[C@@H](NS(=O)(=O)c1ccc(-c2ncc(-c3ccc(Cl)c(Cl)c3)s2)cc1)C(=O)O [Compound A-15]
23,0.0037,O=C(O)[C@H](NS(=O)(=O)c1ccc(-c2ccc(N3CCCC3)cc2)s1)c1ccc(O)cc1 [Compound F-17]

row,IC50 [µM],Structure (SMILES)
1,0.0174,CSc1ccc(-c2nc(-c3ccc(S(=O)(=O)N[C@H](Cc4ccccc4)C(=O)O)cc3)no2)cc1 [Compound C-10]
2,0.015,C#Cc1ccc(C#Cc2ccc(S(=O)(=O)N[C@H](Cc3c[nH]c4ccccc34)C(=O)O)cc2)cc1 [Compound G-2]
3,0.01,CCc1ccc(-c2nc(-c3ccc(S(=O)(=O)N[C@@H](C(=O)O)C(C)C)cc3)no2)cc1 [Compound C-1]
4,0.01,CC(=O)NCCc1ccc(-n2nnc(-c3ccc(S(=O)(=O)N[C@H](Cc4ccccc4)C(=O)O)cc3)n2)cc1 [Compound I-2]
5,0.012,CCC(C)[C@H](NS(=O)(=O)c1ccc(-c2ncc(-c3ccccc3)s2)cc1)C(=O)O (stereo partly shown) [Compound A-1]
6,0.854,CNc1ccc(-c2ccc(S(=O)(=O)N[C@@H](Cc3ccccc3)C(=O)O)s2)cc1 [Compound F-22]
7,0.0204,CCc1ccc(-c2ccc(S(=O)(=O)NC(C(=O)O)C(C)C)cc2)cc1 (stereo not shown) [Compound E-18]
8,0.0246,O=C(O)[C@@H](NS(=O)(=O)c1ccc(-c2ncc(-c3ccc(Cl)cc3)s2)cc1)c1ccccc1 [Compound A-10]
9,> 10,O=C(O)[C@@H](Cc1ccccc1)NS(=O)(=O)c1ccc(C#Cc2cccc3ccccc23)s1 [Compound H-7]
10,0.0254,CSc1ccc(-c2ccc(S(=O)(=O)NC(C(=O)O)c3cccs3)cc2)cc1 (stereo not shown) [Compound E-13]
11,0.573,C[C@@H](NS(=O)(=O)c1ccc(C#Cc2ccc(F)c(F)c2)s1)C(=O)O [Compound H-11]
12,0.153,O=C(O)[C@@H](Cc1ccccc1)NS(=O)(=O)c1ccc(C#CC2=CCCCC2)s1 [Compound H-14]
13,0.4,CC(C)C(NS(=O)(=O)c1ccc(-c2ccccc2)cc1)C(=O)O (stereo not shown) [Compound E-1]
14,0.39,CC(C)(C)c1ccc(-c2ccc(S(=O)(=O)NC(Cc3ccccc3)C(=O)O)cc2)cc1 (stereo not shown) [Compound E-25]
15,0.141,O=C(O)[C@@H](Cc1ccccc1)NS(=O)(=O)c1ccc(-c2nc(-c3ccc(Cl)cc3)no2)cc1 [Compound D-2]
16,0.0113,CC(C)c1ccc(-c2nc(-c3ccc(S(=O)(=O)N[C@H](C)C(=O)O)cc3)no2)cc1 [Compound C-3]
17,1.06,O=C(O)[C@@H](Cc1ccc(-c2ccccc2)cc1)NS(=O)(=O)c1ccc(-c2ccccc2)cc1 [Compound E-23]
18,0.0196,CC(C)c1ccc(-c2nc(-c3ccc(S(=O)(=O)N[C@H](CC(=O)O)C(=O)O)cc3)no2)cc1 [Compound C-7]
19,0.25,CC(C)C[C@@H](NS(=O)(=O)c1ccc(-c2ccc(N3CCCCC3)cc2)s1)C(=O)O [Compound F-16]
20,0.012,C[C@@H](NS(=O)(=O)c1ccc(-c2ccc(-c3ccc4ccccc4c3)cc2)cc1)C(=O)O [Compound E-28]
21,0.00045,CSc1ccc(-c2cnc(-c3ccc(S(=O)(=O)N[C@H](C(=O)O)C(C)C)cc3)s2)cc1 [Compound A-26]
22,0.033,O=C(O)CNS(=O)(=O)c1ccc(-c2ccc(N3CCCC3)cc2)s1 [Compound F-13]
23,0.0092,CSCC[C@@H](NS(=O)(=O)c1ccc(-c2ncc(-c3ccc4c(c3)OCO4)s2)cc1)C(=O)O [Compound A-19]

row,Structure (SMILES),IC50 [µM]
1,O=C(O)[C@H](Cc1c[nH]c2ccccc12)NS(=O)(=O)c1ccc(C#Cc2ccc3ccccc3c2)cc1 [Compound G-6],0.893
